ChEMBL document CHEMBL4813910, “Curse or Cure? A Perspective on the Developability of Aldehydes as Active Pharmaceutical Ingredients” (J Med Chem, 2020)
One block for each molecule: values may come before it.

Key:
[1] = Half life in human at 0.7 mg/kg, po; format: ADME, organism-based; details: in vivo
[2] = Oral bioavailability in human at 0.7 mg/kg; format: ADME, organism-based; details: in vivo
[3] = Bioavailability in human at 10.3 mg; format: ADME, organism-based; details: in vivo
[4] = Drug excretion in human urine at 0.7 mg/kg, po measured after 8 to 24 hrs; format: ADME, organism-based; details: time 8-24 hrs, read-out: Drug excretion
[5] = Dermal bioavailability in human at 0.46 mg/kg; format: ADME, organism-based; details: in vivo, topical or ocular
[6] = Drug excretion in human urine at 0.46 mg/kg dosed-dermally measured for 24 hrs; format: ADME, organism-based; details: topical or ocular, read-out: Drug excretion
[7] = Oral bioavailability in human at 0.03 mg/kg; format: ADME, organism-based; details: in vivo
[8] = Drug excretion in human urine measured for 24 hrs; format: ADME, tissue-based; details: read-out: Drug excretion
[9] = Half life in human at 0.03 mg/kg, po; format: ADME, organism-based; details: in vivo
[10] = Tmax in human at 0.03 mg/kg, po; format: ADME, organism-based; details: in vivo
[11] = target: Serine/threonine-protein kinase/endoribonuclease IRE1 (Mus musculus, UniProt Q9EQY0); assay: Inhibition of mouse IRE1 assessed as reduction in XBP1 splicing using 5'-Alexa Fluor 647-CAUGUCCGCAGCGCAUG-BHQ1-3' as substrate preincubated for 30 mins followed by substrate addition by FRET assay
[12] = Protein binding in human plasma incubated for 240 mins by equilibrium dialysis; format: ADME, cell-free; details: read-out: PPB (converted)
[13] = Drug metabolism in human assessed as half life of acid metabolite at 0.25%, OU administered once daily for 7 days; format: ADME; details: topical_or_ocular, 168 h, time 7 day
[14] = Drug metabolism in human assessed as Cmax of acid metabolite at 0.25%, OU administered once daily for 7 days; format: ADME; parameters: dose 0.25 %, time 7 day; details: topical_or_ocular, 168 h
[15] = Half life in human at 0.25%, OU administered once daily for 7 days; format: ADME; details: topical or ocular, time 7 day
[16] = Drug metabolism in human assessed as Tmax of acid metabolite at 0.25%, OU administered once daily for 7 days; format: ADME; details: topical_or_ocular, 168 h, time 7 day
[17] = Drug metabolism in human assessed as AUC (0 to infinity) of acid metabolite at 0.25%, OU administered once daily for 7 days; format: ADME; parameters: time 7 day, dose 0.25 %; details: topical_or_ocular, 168 h
[18] = Half life in human liver supernatant; format: ADME, subcellular, Supernatent
[19] = Tmax in human at 0.25%, OU administered once daily for 7 days; format: ADME; details: topical or ocular, time 7 day
[20] = Cmax in human at 0.25%, OU administered once daily for 7 days; format: ADME; parameters: dose 0.25 %, time 7 day; details: topical or ocular
[21] = Half life in mouse plasma at 5 ug/ml incubated for 1 to 24 hrs by LC/MS/MS method; format: ADME, cell-free; details: time 1-24 hrs, dose 5 µg/ml
[22] = Half life in human plasma at 5 ug/ml incubated for 1 to 24 hrs by LC/MS/MS method; format: ADME, cell-free; details: time 1-24 hrs, dose 5 µg/ml
[23] = Half life in dog plasma at 5 ug/ml incubated for 1 to 24 hrs by LC/MS/MS method; format: ADME, cell-free, Canis lupus familiaris; details: time 1-24 hrs, dose 5 µg/ml
[24] = Clearance in mouse at 1 mg/kg, iv; format: ADME, organism-based; details: in vivo
[25] = Cmax in mouse at 3 mg/kg, po; format: ADME, organism-based; parameters: route oral, dose 3 mg/kg; details: in vivo
[26] = Oral bioavailability in mouse at 3 mg/kg; format: ADME, organism-based; details: in vivo
[27] = Tmax in mouse at 3 mg/kg, po; format: ADME, organism-based; details: in vivo
[28] = AUC (0 to 24 hrs) in mouse at 1 mg/kg, iv; format: ADME, organism-based; parameters: time < 24 hr, route intravenous, dose 1 mg/kg; details: in vivo
[29] = Half life in mouse at 1 mg/kg, iv; format: ADME, organism-based; details: in vivo
[30] = AUC (0 to 24 hrs) in mouse at 3 mg/kg, po; format: ADME, organism-based; parameters: time < 24 hr, route oral, dose 3 mg/kg; details: in vivo
[31] = Volume of distribution at steady state in mouse at 1 mg/kg, iv; format: ADME, organism-based; details: in vivo, read-out: Vdss

Chain of Serine/threonine-protein kinase/endoribonuclease IRE1 (Q9EQY0 whole entry): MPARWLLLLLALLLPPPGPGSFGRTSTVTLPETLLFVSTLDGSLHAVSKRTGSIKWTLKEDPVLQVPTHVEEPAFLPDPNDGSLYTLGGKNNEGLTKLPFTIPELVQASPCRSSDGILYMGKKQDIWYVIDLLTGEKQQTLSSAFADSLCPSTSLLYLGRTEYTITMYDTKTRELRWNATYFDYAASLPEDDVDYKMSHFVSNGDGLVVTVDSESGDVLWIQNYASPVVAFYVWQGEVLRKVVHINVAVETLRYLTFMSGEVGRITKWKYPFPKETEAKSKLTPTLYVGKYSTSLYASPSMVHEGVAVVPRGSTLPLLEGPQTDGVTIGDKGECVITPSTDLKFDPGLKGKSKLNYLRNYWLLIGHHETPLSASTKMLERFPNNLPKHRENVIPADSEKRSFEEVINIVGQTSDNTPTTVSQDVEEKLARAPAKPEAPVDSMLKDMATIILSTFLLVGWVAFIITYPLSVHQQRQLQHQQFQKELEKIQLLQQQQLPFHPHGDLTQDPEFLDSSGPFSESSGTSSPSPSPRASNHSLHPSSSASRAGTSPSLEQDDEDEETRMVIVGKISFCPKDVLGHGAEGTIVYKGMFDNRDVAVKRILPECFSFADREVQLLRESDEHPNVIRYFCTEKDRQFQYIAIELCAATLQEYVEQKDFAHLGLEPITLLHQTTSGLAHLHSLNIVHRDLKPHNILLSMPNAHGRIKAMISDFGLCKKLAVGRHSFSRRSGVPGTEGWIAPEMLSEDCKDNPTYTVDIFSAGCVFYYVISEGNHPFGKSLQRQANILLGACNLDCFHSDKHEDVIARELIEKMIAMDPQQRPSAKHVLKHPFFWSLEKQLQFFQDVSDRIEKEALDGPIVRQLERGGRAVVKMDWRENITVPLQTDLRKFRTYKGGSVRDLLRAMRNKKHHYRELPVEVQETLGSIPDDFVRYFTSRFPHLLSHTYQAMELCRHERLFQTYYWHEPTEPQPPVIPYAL

SMILES: O=C/C=C/c1ccccc1
- half-life [1]: < 4 h
- bioavailability [2]: 100%
- bioavailability [3]: 9%
- dose excreted [4]: 100%

- bioavailability [5]: 5%
- dose excreted at 24 h [6]: 90%
- bioavailability [7]: 100%
- dose excreted at 24 h [8]: 94%
- half-life [9]: 3.28 h
- Tmax [10]: 2.7 h
SMILES: CC(CC=O)CCCC(C)(C)O (configuration not stated)

- IC50 [11]: < 100 nM
SMILES: COc1cc2c(C)c(CC(=O)N3CCOCC3)c(=O)oc2c(C=O)c1O

- fraction unbound at 4 h [12]: 0.37
SMILES: CN1CCC(=C2c3ccccc3CCn3c(C(=O)O)cnc32)CC1

- fraction unbound at 4 h [12]: 0.61
- t1/2 [13]: 2 h
- Cmax [14]: 6 nM
- half-life [15]: 0.4 h
- Tmax [16]: 1.05 h
- AUC [17]: 0.0087 µM·h
- half-life [18]: < 0.25 h
- Tmax [19]: 0.25 h
- Cmax [20]: 0.15 nM
SMILES: CN1CCC(=C2c3ccccc3CCn3c(C=O)cnc32)CC1 [ALCAFTADINE]

SMILES: Cc1cc2c(C(C)C)c(O)c(O)cc2c(O)c1-c1c(C)cc2c(C(C)C)c(O)c(O)cc2c1O [APOGOSSYPOL]
- half-life at 5 ug/ml [21]: < 1 h
- half-life at 5 ug/ml [22]: < 1 h
- half-life at 5 ug/ml [23]: < 1 h

- clearance [24]: 28 mL/min/kg
- Cmax [25]: 200 nM
- F [26]: 21%
- Tmax [27]: 2 h
- AUC [28]: 1.16 µM·h
- half-life [29]: 1.4 h
- AUC [30]: 0.25 µM·h
- Vd [31]: 2.3 L/kg
SMILES: COCCNc1cc(NC(=O)N2CCCc3cc(CN4CCN(C)CC4=O)c(C=O)nc32)ncc1C#N [FGF401]
